This is an account of results in patent publication US11667668B2, “Compositions and methods for treating CNS disorders” (Sage Therapeutics, Inc., priority 2017, dated 2023).

The target in the assay is rat brain cortical membranes ([35S]-TBPS binding; GABAA receptor). Description: Steroid inhibition of [35S]-TBPS binding. The conditions noted are these: 3 nM [35S]-TBPS, in the presence of 5 mM GABA, 90 min at room temp. The method, then: [35S]-t-Butylbicyclophosphorothionate (TBPS) binding assays using rat brain cortical membranes in the presence of 5 mM GABA has been described (Gee et al, J. Pharmacol. Exp. Ther. 1987, 241, 346-353; Hawkinson et al, Mol. Pharmacol. 1994, 46, 977-985; Lewin, A. H et al., Mol. Pharmacol. 1989, 35, 189-194).
Briefly, cortices are rapidly removed following decapitation of carbon dioxide-anesthetized Sprague-Dawley rats (200-250 g). The cortices are homogenized in 10 volumes of ice-cold 0.32 M sucrose using a glass/teflon homogenizer and centrifuged at 1500×g for 10 min at 4° C. The resultant supernatants are centrifuged at 10,000×g for 20 min at 4° C. to obtain the P2 pellets. The P2 pellets are resuspended in 200 mM NaCl/50 mM Na—K phosphate pH 7.4 buffer and centrifuged at 10,000×g for 10 min at 4° C. This washing procedure is repeated twice and the pellets are resuspended in 10 volumes of buffer. Aliquots ([…]) of the membrane suspensions are incubated with 3 nM [35S]-TBPS and 5 mL aliquots of test drug dissolved in dimethyl sulfoxide (DMSO) (final 0.5%) in the presence of 5 mM GABA. The incubation is brought to a final volume of 1.0 mL with buffer. Nonspecific binding is determined in the presence of […] and ranged from 15 to 25%. […] Filter bound radioactivity is measured by liquid scintillation spectrometry. […]

In the case of `[2H]C([2H])([2H])[C@@]1(O)CC[C@H]2[C@H](CC[C@@H]3[C@@H]2CC[C@]2(C)[C@@H](C(=O)Cn4cc(C#N)cn4)CC[C@@H]32)C1` [Compound 1, 1-(2-((3R,5R,8R,9R,10S,13S,14S,17S)-3-hydroxy-13-methyl-3-(methyl-d3)hexadecahydro-1H-cyclopenta[a]phenanthren-17-yl)-2-oxoethyl)-1H-pyrazole-4-carbonitrile], the IC50 is < 10 nM.

For the compound `[2H][C@]1(C(=O)Cn2cc(C#N)cn2)CC[C@H]2[C@@H]3CC[C@@H]4C[C@](C)(O)CC[C@@H]4[C@H]3CC[C@@]21C` [Compound A10, 1-(2-((3R,5R,8R,9R,10S,13S,14S,17S)-3-hydroxy-3,13-dimethylhexadecahydro-1H-cyclopenta[a]phenanthren-17-yl-17-d)-2-oxoethyl)-1H-pyrazole-4-carbonitrile], the IC50 is < 10 nM.
